Measured values taken from the Kinase Knowledgebase extract (Sharma et al. 2016).
In brackets after ≈: the same amount, converted by molar mass. Several values for one entry are separate records, joined by “and”; a condition that tells them apart may be missing. Identical values can stand only once.

Key:
EGFR (human) [1] = biological target: EGFR (human) (UniProt P00533); conditions: a431
EGFR [2] = biological target: EGFR (UniProt P00533)
EGFR (human) [3] = biological target: EGFR (human) (UniProt P00533); conditions: mip
EGFR (human) [4] = biological target: EGFR (human) (UniProt P00533); conditions: ls174t
EGFR (human) [5] = biological target: EGFR (human) (UniProt P00533); conditions: nfc
EGFR (human) [6] = biological target: EGFR (human) (UniProt P00533); conditions: cx-1 colon
EGFR (human) [7] = biological target: EGFR (human) (UniProt P00533); conditions: du145
EGFR (human) [8] = biological target: EGFR (human) (UniProt P00533); conditions: sw948
EGFR (human) [9] = biological target: EGFR (human) (UniProt P00533); conditions: lx1
EGFR (human) [10] = biological target: EGFR (human) (UniProt P00533); conditions: pc-3
EGFR (human) [11] = biological target: EGFR (human) (UniProt P00533); conditions: hl-60
EGFR (human) [12] = biological target: EGFR (human) (UniProt P00533); conditions: a2780s
EGFR (human) [13] = biological target: EGFR (human) (UniProt P00533); conditions: nhek
EGFR (human) [14] = biological target: EGFR (human) (UniProt P00533); conditions: caco2
EGFR (human) [15] = biological target: EGFR (human) (UniProt P00533); conditions: t-47d
EGFR (human) [16] = biological target: EGFR (human) (UniProt P00533); conditions: a549
EGFR (human) [17] = biological target: EGFR (human) (UniProt P00533); conditions: lncap
EGFR [18] = biological target: EGFR (UniProt P00533); remark: listed apart in the source
EGFR (human) [19] = biological target: EGFR (human) (UniProt P00533); conditions: hct-15
EGFR (human) [20] = biological target: EGFR (human) (UniProt P00533); conditions: b7474
EGFR (human) [21] = biological target: EGFR (human) (UniProt P00533); conditions: ccrf-cem leukemia cell
EGFR (human) [22] = biological target: EGFR (human) (UniProt P00533); conditions: colo-205
EGFR (human) [23] = biological target: EGFR (human) (UniProt P00533); conditions: ccl228
EGFR (human) [24] = biological target: EGFR (human) (UniProt P00533); conditions: a2780ddp
EGFR (human) [25] = biological target: EGFR (human) (UniProt P00533); conditions: htb161

Chain of EGFR (P00533 whole entry, looked up): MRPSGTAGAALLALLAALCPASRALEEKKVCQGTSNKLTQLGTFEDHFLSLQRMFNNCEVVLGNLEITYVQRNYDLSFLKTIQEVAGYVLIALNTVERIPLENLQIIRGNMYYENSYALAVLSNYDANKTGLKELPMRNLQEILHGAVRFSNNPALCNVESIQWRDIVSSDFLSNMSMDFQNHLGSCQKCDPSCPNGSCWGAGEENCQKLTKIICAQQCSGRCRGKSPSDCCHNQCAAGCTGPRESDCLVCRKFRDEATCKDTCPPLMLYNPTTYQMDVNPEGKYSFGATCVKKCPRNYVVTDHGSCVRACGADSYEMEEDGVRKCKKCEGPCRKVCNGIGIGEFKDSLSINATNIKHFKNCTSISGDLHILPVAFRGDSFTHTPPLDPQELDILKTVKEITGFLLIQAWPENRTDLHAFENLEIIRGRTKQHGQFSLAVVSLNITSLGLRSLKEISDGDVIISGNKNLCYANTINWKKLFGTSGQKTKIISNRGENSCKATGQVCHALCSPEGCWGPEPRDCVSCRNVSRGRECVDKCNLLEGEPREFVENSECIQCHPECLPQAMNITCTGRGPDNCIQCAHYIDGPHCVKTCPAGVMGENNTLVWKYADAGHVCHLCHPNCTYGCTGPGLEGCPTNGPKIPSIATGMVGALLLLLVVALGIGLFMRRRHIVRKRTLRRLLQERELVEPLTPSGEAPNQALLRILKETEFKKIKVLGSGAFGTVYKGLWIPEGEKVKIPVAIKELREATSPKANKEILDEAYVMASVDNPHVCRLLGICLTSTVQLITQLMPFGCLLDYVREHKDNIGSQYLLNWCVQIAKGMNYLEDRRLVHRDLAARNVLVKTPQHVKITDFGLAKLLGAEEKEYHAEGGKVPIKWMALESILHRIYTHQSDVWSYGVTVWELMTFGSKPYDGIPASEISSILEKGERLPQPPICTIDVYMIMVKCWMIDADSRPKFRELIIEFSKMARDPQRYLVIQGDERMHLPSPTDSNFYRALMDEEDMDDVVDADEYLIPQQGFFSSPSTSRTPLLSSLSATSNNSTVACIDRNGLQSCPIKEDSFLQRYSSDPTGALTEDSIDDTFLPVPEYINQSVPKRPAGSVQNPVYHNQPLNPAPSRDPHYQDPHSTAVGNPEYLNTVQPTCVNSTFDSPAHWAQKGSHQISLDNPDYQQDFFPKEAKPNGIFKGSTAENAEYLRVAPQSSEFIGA
Chain of EGFR (human) (P00533 whole entry, looked up): as above

COc1cc2ncc(C#N)c(Nc3cccc(SC)c3)c2cc1OC
IC50 (EGFR (human) [1]): 14.3 µg/mL and 6.95 µg/mL
IC50 (EGFR [2]): 10 nM

CC#CC(=O)Nc1ccc2ncc(C#N)c(Nc3cccc(Br)c3)c2c1
IC50 (EGFR (human) [3]): 100 µg/mL (≈ 247 µM)
IC50 (EGFR (human) [4]): > 33 µg/mL and 87 µg/mL
IC50 (EGFR (human) [5]): > 100 µg/mL
IC50 (EGFR (human) [6]): 81.9 µg/mL (≈ 202 µM)
IC50 (EGFR (human) [7]): 7.81 µg/mL (≈ 19.3 µM)
IC50 (EGFR (human) [1]): 38.1 µg/mL
IC50 (EGFR (human) [8]): > 100 µg/mL
IC50 (EGFR (human) [9]): > 100 µg/mL
IC50 (EGFR (human) [10]): > 100 µg/mL
IC50 (EGFR (human) [11]): > 100 µg/mL
IC50 (EGFR (human) [12]): 9.8 µg/mL (≈ 24.2 µM)
IC50 (EGFR (human) [13]): 9000 nM
IC50 (EGFR (human) [14]): 5.63 µg/mL (≈ 13.9 µM)
IC50 (EGFR (human) [15]): > 100 µg/mL
IC50 (EGFR (human) [16]): > 100 µg/mL
IC50 (EGFR (human) [17]): > 33 µg/mL and 90 µg/mL
IC50 (EGFR [18]): 9000 nM
IC50 (EGFR (human) [19]): > 33 µg/mL and 98.9 µg/mL
IC50 (EGFR (human) [20]): > 33 µg/mL and 95.7 µg/mL
IC50 (EGFR (human) [21]): > 100 µg/mL
IC50 (EGFR (human) [22]): > 100 µg/mL
IC50 (EGFR (human) [23]): > 100 µg/mL
IC50 (EGFR (human) [24]): 60.4 µg/mL (≈ 149 µM)
IC50 (EGFR (human) [25]): 7.89 µg/mL (≈ 19.5 µM)

CCN1CCN(CC#CC(=O)Nc2ccc3ncc(C#N)c(Nc4cccc(Br)c4)c3c2)CC1
IC50 (EGFR (human) [1]): 800 nM

COC/C=C/C(=O)Nc1ccc2ncc(C#N)c(Nc3cccc(Br)c3)c2c1
IC50 (EGFR (human) [1]): 0.8 µg/mL
IC50 (EGFR [2]): 80 nM

COc1cc2ncc(C#N)c(Nc3cccc(Br)c3)c2cc1OC
IC50 (EGFR (human) [1]): 300 nM

COc1cc2ncc(C#N)c(Oc3cccc(Br)c3)c2cc1OC
IC50 (EGFR (human) [3]): > 100 µg/mL
IC50 (EGFR (human) [4]): > 100 µg/mL
IC50 (EGFR (human) [1]): 100 µg/mL
IC50 (EGFR (human) [8]): > 100 µg/mL
IC50 (EGFR (human) [9]): > 100 µg/mL
IC50 (EGFR (human) [10]): > 100 µg/mL
IC50 (EGFR (human) [16]): > 100 µg/mL
IC50 (EGFR (human) [21]): > 100 µg/mL

COc1cc2ncc(C#N)c(Nc3ccc(F)cc3)c2cc1OC
IC50 (EGFR (human) [8]): > 100 µg/mL
IC50 (EGFR (human) [10]): > 100 µg/mL
IC50 (EGFR (human) [15]): > 100 µg/mL

N#Cc1cnc2ccc([N+](=O)[O-])cc2c1Nc1cccc(Br)c1
IC50 (EGFR (human) [5]): > 100 µg/mL
IC50 (EGFR (human) [6]): > 100 µg/mL
IC50 (EGFR (human) [8]): > 100 µg/mL
IC50 (EGFR (human) [9]): > 100 µg/mL
IC50 (EGFR (human) [10]): > 100 µg/mL
IC50 (EGFR (human) [16]): > 100 µg/mL
IC50 (EGFR (human) [17]): > 100 µg/mL
IC50 (EGFR (human) [19]): 100 µg/mL (≈ 271 µM)
IC50 (EGFR (human) [21]): > 100 µg/mL
IC50 (EGFR (human) [23]): > 100 µg/mL

COc1cc2ncc(C#N)c(Nc3cccc(Br)c3)c2cc1NC(=O)C#CCN(C)C
IC50 (EGFR [2]): 0.008 nM

CC(=O)Nc1cc(CN(C)C)c2ncc(C#N)c(Nc3cccc(Br)c3)c2c1
IC50 (EGFR (human) [1]): > 5 µg/mL

COc1cc2ncc(C#N)c(Nc3cccc(Cl)c3)c2cc1OC
IC50 (EGFR (human) [1]): 240 nM and 0.71 µg/mL

N#Cc1cnc2ccc(N)cc2c1Nc1cccc(Br)c1
IC50 (EGFR (human) [8]): > 100 µg/mL
IC50 (EGFR (human) [22]): > 100 µg/mL

COc1cc2ncc(C#N)c(Nc3cccc(C#N)c3)c2cc1OC
IC50 (EGFR (human) [3]): > 100 µg/mL
IC50 (EGFR (human) [8]): > 100 µg/mL
IC50 (EGFR (human) [9]): 100 µg/mL (≈ 303 µM)
IC50 (EGFR (human) [11]): > 1 µg/mL
IC50 (EGFR (human) [16]): 100 µg/mL (≈ 303 µM)
IC50 (EGFR (human) [21]): > 100 µg/mL
IC50 (EGFR (human) [22]): > 100 µg/mL
IC50 (EGFR (human) [23]): > 100 µg/mL

CNC/C=C/C(=O)Nc1ccc2ncc(C#N)c(Nc3cccc(Br)c3)c2c1
IC50 (EGFR (human) [1]): > 10 µg/mL
